Data set [1] concerns E. coli ATCC 27325. Type of data set: cell-based, Escherichia coli. Conditions: ATCC 27325, 18 h. How it is done: The MICs of the designed peptides were measured against the gram-negative bacterium E. coli ATCC 27325 according to the general guidelines of the Clinical and Laboratory Standards Institute, with some modifications based on a study of cationic AMPs. Briefly, a single bacterial colony was cultured in Mueller−Hinton broth (MHB; Sigma–Aldrich) until the mid-log phase (optical density of 0.4–0.6 at 600 nm). The bacterial suspension was diluted with fresh MHB to a concentration of 10^6 colony-forming units (CFU)/mL. Next, two-fold serial dilutions (128 to 1 μM) of the peptides were prepared in MHB and mixed (1:1) with the diluted bacterial culture, resulting in a final peptide concentration ranging from 64 to 0.5 μM and final bacteria concentration of 5 × 10^5 cells/mL. The mixtures were placed into 96-well polypropylene microtiter plates (Corning), with sterile MHB used as a negative control and MHB inoculated with bacterial cells used as growth control. The plates were incubated for 18 h at 37 °C with shaking at 200 rpm. The MIC values were determined as the lowest concentrations at which no bacterial growth was recorded at 600 nm using a microplate reader (Infinite 200 Pro; Tecan, Männedorf, Switzerland).

Data set [2] concerns E. coli. Description: Antibacterial activity of peptide-coated surfaces (ISO 22196, modified), E. coli. The format is cell-based, Escherichia coli. Here is the method:
(§1) To coat the designed peptides on a surface, 200 μL of freshly prepared 200 μM peptide solution (10 mM Tris-HCl, pH 8.5) was added into a 24-well PS plate and incubated for 10 min at 37 °C. After coating, the plates were rinsed with deionized water and air-dried. The PS, Ti, and PDMS pieces (1 cm × 1 cm) were coated in the same manner. For the PD-mediated AMP coating, a layer of PD was first coated on a 24-well PS plate by dip coating, as previously described, with minor modifications. Each PS well was treated with 2 mg/mL dopamine solution (10 mM Tris-HCl, pH 8.5) and incubated for approximately 1 h at 37 °C. The PD-coated wells were washed twice with deionized water to remove excess dopamine. To attach the NKC peptide to a PD-coated 24-well PS plate, NKC peptide solution (200 μM) was dispensed into each well, and the plate was incubated at 37 °C for 24 h. The wells with the immobilized peptide were then washed twice with deionized water.
(§2) The bactericidal activities of the AMP-coated surfaces were evaluated following the International Organization for Standardization 22196 standard with slight modifications. Overnight bacterial suspensions were subcultured in fresh LB until the mid-log phase and diluted to 10^6 cells/mL with 500-fold diluted LB. The AMP-coated and uncoated substrates (1 cm × 1 cm) were placed in 24-well plates, and 10 μL of the bacterial suspension was distributed over the substrate surface. The substrates were covered with a piece of polyethylene film (1 cm × 1 cm) and incubated for 2 h (37 °C, relative humidity: >90%). Subsequently, SCDLP broth (990 μL) was added, and viable cells were retrieved and serially diluted. Aliquots (100 μL) of the bacterial suspension were withdrawn and plated for colony counting.

Data set [3] relates to P. aeruginosa. Put plainly: Antibacterial activity of peptide-coated surfaces (ISO 22196, modified), P. aeruginosa. The format is cell-based, Pseudomonas aeruginosa. Conditions: NKC-DOPA5-coated PS, Ti and PDMS (1 cm × 1 cm), 10 μL of 10^6 cells/mL, 37 °C. How it is done: as §1
(§3) The bactericidal activities of the AMP-coated surfaces were evaluated following the International Organization for Standardization 22196 standard with slight modifications. Overnight bacterial suspensions were subcultured in fresh LB until the mid-log phase and diluted to 10^6 cells/mL with 500-fold diluted LB. […]

Data set [4] deals with S. aureus. Put plainly: Antibacterial activity of peptide-coated surfaces (ISO 22196, modified), S. aureus. Type of data set: cell-based, Staphylococcus aureus. The following applies: NKC-DOPA5-coated PS, Ti and PDMS (1 cm × 1 cm), 10 μL of 10^6 cells/mL, 37 °C. Here is the method:
as §1, §3

Data set [5] relates to E. coli. Description: Bacterial adhesion / biofilm assay (live/dead staining, confocal microscopy), E. coli. The format is cell-based, Escherichia coli. Conditions: 10^7 cells/mL, 24 h, 37 °C, SYTO9/PI staining. Here is the method: (§4) The viability of bacterial cells adhered to the substrate surface was evaluated using the Live/Dead BacLight Bacterial Viability Kit (Thermo Fisher Scientific) according to the manufacturer’s instructions. Briefly, 200 μL of bacterial suspensions adjusted to 10^7 cells/mL were incubated on uncoated or peptide-coated chambered cover glasses (Thermo Fisher Scientific) at 37 °C for 24 h. After 24 h, planktonic cells were removed, and the surfaces were washed with 0.85% (w/v) NaCl buffer. Cells attached to the surfaces were stained for 15 min in the dark with BacLight stock solution containing two fluorescent nucleic acid stains, SYTO9 and propidium iodide (PI). After staining, the surfaces were washed with 0.85% NaCl solution, and the stained cells were photographed using confocal laser-scanning microscopy (LSM 5 LIVE DuoScan, Carl Zeiss, Jena, Germany) using a 63× objective. The excitation wavelengths were 488 and 561 nm for SYTO9 and PI, respectively.

The test system of data set [6] is P. aeruginosa. Put plainly: Bacterial adhesion / biofilm assay (live/dead staining, confocal microscopy), P. aeruginosa. Type of data set: cell-based, Pseudomonas aeruginosa. Conditions: 10^7 cells/mL, 24 h, 37 °C, SYTO9/PI staining. Here is the method:
as §4

Data set [7] relates to S. aureus. Put plainly: Bacterial adhesion / biofilm assay (live/dead staining, confocal microscopy), S. aureus. Conditions: 10^7 cells/mL, 24 h, 37 °C, SYTO9/PI staining. The format is cell-based, Staphylococcus aureus. How it is done:
as §4

The test system of data set [8] is E. coli. Description: Stability assessment of surface-coated peptide (antimicrobial activity after storage). The format is cell-based, Escherichia coli. The following applies: for antimicrobial activity after storage: coated PS stored at 25 °C, (Nc−N)/Nc×100, mean ± SD. Here is the method: as §2
To evaluate the stability of the surface-coated peptides, antimicrobial activity was determined as described above after incubating the AMP-coated PS plates for 1, 7, 14, 21, 28, 56, and 84 days at 4 °C and 25 °C and with the formula below: Antimicrobial activity (%)=Nc−N/Nc×100 where Nc and N represent the number of colonies after incubation on the control and AMP-coated substrates, respectively.

The subject of data set [9] is P. aeruginosa. Put plainly: Rat subcutaneous implant infection model. The format is in vivo, Sprague–Dawley rats. Here is the method:
In vivo antibacterial activity was evaluated using specific pathogen-free Sprague–Dawley male rats (7 weeks old, weighing 200−220 g). All animal experiments were approved by the Animal Ethics Committee of KNOTUS, Incheon, Korea (approval no. 18-KE-383) and performed following the guidelines for the care and use of laboratory animals of KNOTUS. All rats were housed in individually ventilated cages and acclimated for 7 days before surgery. For implantation, the rats were anesthetized by intramuscular injection of Zoletil® (30 mg/kg; Virbac, Carros, France), and the dorsum was shaved and disinfected with 70% isopropyl alcohol. Approximately 1 cm wide incisions were made parallel to the spine and extended to the subdermal fascia. For the control group, uncoated Ti screws or PDMS slides were implanted into the left flank, whereas AMP-coated implants were inserted into the right flank. The wounds were sutured, and the implant site was marked on the skin. Setting the skin mark as a guide, 100 μL of a p. aeruginosa inoculum containing 2.5 × 10^8 cells/mL was injected subcutaneously. The rats were euthanized by CO2 asphyxia at 5 days after the bacterial challenge. The implants were removed using sterile tools and placed in sterile tubes containing 1 mL of PBS. For the detachment of bacteria from the implant materials, the tubes were sonicated for 15 min, and 10-fold serial dilutions of the bacterial solution were plated on LB agar for CFU determination. The tissues surrounding the implants were carefully removed, separately immersed in 1 mL of PBS, and homogenized. Bacteria in the tissues were quantified by serial dilution. For histological examination, the tissues surrounding the implants were formaldehyde-fixed, paraffin-embedded, and then stained with hematoxylin and eosin [26].

In data set [10] the test system is HaCaT cells.
Method: To evaluate the toxicity of the peptides coated on the substrates towards human skin, the mitochondrial dehydrogenase activity of HaCaT keratinocytes was measured in a modified 3-(4,5-dimethyl-2-thiazolyl)-2,5-diphenyl-2H-tetrazolium bromide (MTT) reduction assay. HaCaT cells were routinely cultured in Dulbecco’s modified Eagle’s medium (DMEM; Lonza, Basel, Switzerland) with 10% fetal bovine serum (Lonza) and 1% penicillin–streptomycin solution (Thermo Fisher Scientific) in humidified 5% CO2 at 37 °C. The cultured cells were washed twice with phosphate-buffered saline (PBS; pH 7.4) and detached by trypsinization. The harvested HaCaT cells were diluted to 5 × 10^4 cells/mL, seeded into 12-well culture plates, and incubated in a humidified incubator with 5% CO2. After incubation, the medium was changed to serum-free DMEM, and uncoated or AMP-coated pieces (PS/Ti/PDMS; 1 cm × 1 cm) were placed upside down on the HaCaT cells. After 24 h, the pieces were removed, and MTT solution in 1 mL of DMEM was added to each well. […] The plate was incubated overnight, and the absorbance was measured at 570 nm using a microplate reader (Tecan Infinite 200 Pro). […] Cell viability was expressed as the percentage of surviving cells on the coated substrates relative to those on the uncoated substrates.
[11] abbreviates: peptide-coated 24-well PS, 10^6 cells/mL E. coli, 2 h, colony counting.
Setting [12] is: coated PDMS implants, 5 days post-inoculation.

Ends that are not written are not given here. A value given as a limit tells only on which side of the number the result lay.

The term MIC denotes the least concentration at which growth counts as inhibited. Low readings indicate inhibition by little substance, high ones a need for much substance. Usually cell viability stands for a per cent measure of how many cells are alive, often set against a control. A higher cell viability goes with less harm to the cells.

Consider “APKAMKLLKKLLKLQKKGI-NH2 (C-terminus assumed) [NKC, reference compound]”, for which the MIC in [1] amounted to 1 µM. Besides, the “reduction of the cell count” value in [2] (NKC attached via polydopamine (PD) to PS plate, E. coli, 2 h) is reported as “approximately 4.2 log”.
Regarding “APKAMKLLKKLLKLQKKGIGGGGSGGGGSYYY [NKC-DOPA3, NKC with glycine–serine linker and 3 DOPA moieties at the C-terminus]”, the “log reduction in the cell count” value in data set [2] (setting [11]) is 5.7 log.
On to “APKAMKLLKKLLKLQKKGIGGGGSGGGGSYYYYY [NKC-DOPA5]”, for which the “number of viable bacterial cells after 2 h” value in data set [2] (NKC-DOPA5-coated PS, Ti and PDMS (1 cm × 1 cm), 10 μL of 10^6 cells/mL, 37 °C) is given as “zero”; in data set [3] it was “zero”; in data set [4], “zero”. Besides, the “bacterial growth on coated surface (in words)” value (from here on “bacterial growth”) in [2] (setting [11]) is listed as “No bacterial growth was observed”. For the same substance, the “biofilm formation on coated surface” value in data set [5], in data set [6] and in [7] was “remarkably inhibited biofilm formation” throughout. Besides, in data set [8] (coated PS plate stored at 4 °C for 84 days), the “change in antimicrobial activity during storage” value is recorded as “no change”. The results for the “antimicrobial activity after storage” value in [8] (7 days) and in data set [8] (84 days) were 99.75 ± 0.16% and 99.17 ± 3.25%, respectively. Also, the “decrease in number of bacteria recovered from surrounding tissues vs pristine” value in data set [9] (PDMS implants, 5 days post-inoculation) is reported as “approximately 3.8 log CFU/g”. For the same substance, the “difference in number of bacteria in surrounding tissues, pristine vs coated” value in [9] (Ti implants, 5 days post-inoculation) is 3 log CFU/g. Also, in data set [9] (setting [12]), the “implants from which microorganisms were absent” value is reported as “three of the five implants”. The “median number of bacteria recovered from surrounding tissues” value in [9] (setting [12]) is recorded as 0.9 log CFU/g. Moreover, in data set [9] (coated PDMS implants, five implants, 5 days post-inoculation), the “average bacterial count per implant” value is reported as 0.92 log CFU/mL per implant. The “microbial loads of the two colonised implants” value in [9] (coated PDMS, the other two of five implants, 5 days post-inoculation) is 2.0−2.6 log CFU/mL. The “number of bacteria from tissues surrounding the implants” value in [9] (coated Ti implants, 5 days post-inoculation) is 2.7 log CFU/g. Moreover, the microorganisms on implants entry in [9] (coated Ti screw, five implants, 5 days post-inoculation of P. aeruginosa) is “no microorganisms were observed”. Also, the “inflammation of tissues around the implants” value in data set [9] (coated Ti screws and PDMS, 5 days post-inoculation, gross observation) is “without apparent inflammation”. The cell viability in [10] was over 90%.
Turning to “APKAMKLLKKLLKLQKKGIGGGGSGGGGSY [NKC-DOPA1, NKC with glycine–serine linker and 1 DOPA moiety at the C-terminus]”, the “bacterial growth” value in data set [2] (setting [11]) is listed as “hardly inhibited bacterial growth”.
For “APKAMKLLKKLLKLQKKGIGGGGSGGGGSYYYYYYY [NKC-DOPA7, NKC with glycine–serine linker and 7 DOPA moieties at the C-terminus]”, in data set [2] (setting [11]), the “bacterial growth” value is reported as “No bacterial growth was observed”.
